Structures can show the parent of a compound that is named as a salt. Where two headings read alike, the source gives them in different places.
Columns and labels:
HIV protease = molecular target: T1, HIV protease (Human immunodeficiency virus type 1 group M subtype B, UniProt P04585); experiment: HIV Protease Assay; format: biochemical
T1 construct: and purified protease
In short: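 Purified protease cleaved 450 μM octapeptide substrate in 50 mM sodium acetate pH 5.5 with 100 μg/ml BSA for 30 minutes at 37° C; product analyzed by reverse-phase HPLC at UV220 after H3PO4 quench. Inhibitors tested at final 10 μM with 4% DMSO.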

[1] = tested on: RF strain of HIV (CEM-SS cells); experiment: Cell Culture Anti-HIV Activity (cell viability, formazan); format: cell-based; settings: CEM-SS cells, RF strain of HIV, multiplicity of infection 0.04, 6 days at 37° C., 450 nm, read-out: HIV (CEM Cells) IC50
Protocol: The antiviral activity of aminediol inhibitors of the present invention was evaluated by a microculture method which determines the increase in cell viability of an infected culture when a drug is added. The assay depends on the metabolic reduction of tetrazolium reagent by viable cells to yield a soluble colored formazan product.
The assay was performed as follows: suspensions of CEM-SS cells (5000/well) were infected with the RF strain of HIV at a multiplicity of infection at 0.04 in a 96-well plate. The compounds of the present invention listed in the following Table 1, serially diluted in half-log fashion, were added to the infected and uninfected control cells. Untreated (infected and uninfected) cells were included as controls. Following incubation for 6 days at 37° C., viable cells in each well were quantitated by the visible light absorbance at 450 nm.
The IC50 was calculated as the concentration of drug that increased the formazan production in virally infected cells to 50% of that produced by uninfected cells in the absence of drug.

[2] = pH 5.5, 10 μM inhibitor, 4% DMSO, 450 μM substrate, pH 5.5, 30 minutes at 37° C., RP-HPLC, read-out: HIV Protease % Inhibition at 10 μM
[3] = Human immunodeficiency virus 1, CEM-SS, 144 h

| SMILES | HIV Protease % Inhibition at 10 μM (HIV protease) [%] | inhibition at 10 µM (HIV protease; [2]) [%] | inhibition at 10 µM (HIV protease; pH 5.5, read-out: HIV Protease % Inhibition at 10 μM) [%] | IC50 [1] [nM] | IC50 [1, 3] [nM] |
| --- | --- | --- | --- | --- | --- |
| CC(C)[C@H](NC(=O)[C@@H](N)CO)C(=O)N[C@@H](Cc1ccccc1)[C@H](O)CNC[C@@H](O)[C@H](Cc1ccccc1)NC(=O)OC(C)(C)C (relative stereo) [Compound 212, [1R*,2S*(2S*,3R*)]-N-[N-[3-[[3-[[(1,1-Dimethylethoxy)carbonyl]amino]-2-hydroxy-4-phenylbutyl]amino]-2-hydroxy-1-(phenylmethyl)propyl]-L-valyl]-L-serinamide, fumarate (2:3) salt] |  | 99 |  |  | 3800 |
| O=C(N[C@@H](Cc1ccccc1)[C@H](O)CNC[C@@H](O)[C@H](Cc1ccccc1)NC(=O)O[C@H]1CCOC1)O[C@H]1CCOC1 [Compound 338, [1S-(1R*,2S*), (R*)]-[Iminobis[2-hydroxy-1-(phenylmethyl)-3,1-propanediyl]]bis[carbamic acid], bis(3-tetrahydrofuranyl)ester] |  | 99 |  |  | 930 |
| CC(C)[C@@H](C(=O)N[C@@H](Cc1ccccc1)[C@H](O)CNC[C@@H](O)[C@H](Cc1ccccc1)NC(=O)OC(C)(C)C)N(C)C(=O)OCc1ccccc1 [Compound 66, [S-[1R*,2S*(2S*,3R*)]]-N-[3-[[3-[(1,1-Dimethylethoxy)carbonyl)amino]-2-hydroxy-4-[phenylbutyl]amino]-2-hydroxy-1-(phenylmethyl)propyl]-N^2-methyl-N^2 [(phenylmethoxy)-carbonyl]-L-valinamide] |  | 99 |  |  | 270 |
| C[C@H](NC(=O)OCc1nc2ccccc2[nH]1)C(=O)N[C@@H](Cc1ccccc1)[C@H](O)CNC[C@@H](O)[C@H](Cc1ccccc1)NC(=O)OC(C)(C)C (relative stereo) [Compound 220, [1R*,2S*(2S*,3R*)]-N^2-[[(2-Benzimidazolyl)methoxy]carbonyl]-N-[3-[[3-[[(1,1-dimethylethoxy)carbonyl]amino]-2-hydroxy-4-phenylbutyl]amino]-2-hydroxy-1-(phenylmethyl)propyl]-L-alaninamide] |  | 100 |  |  | 770 |
| CC(C)(C)OC(=O)N[C@@H](Cc1ccccc1)[C@H](O)CNC[C@@H](O)[C@H](Cc1ccccc1)NC(=O)C(OCCCc1nc2ccccc2[nH]1)C(C)(C)C (stereo partly drawn) [Compound 238, [1S-[1R*,2S*(2S*,3R*)]]-[3-[[3-[[2-[3-(2-Benzimidazolyl)propoxy]-3,3-dimethyl-1-oxobutyl]amino]-2-hydroxy-4-phenylbutyl]amino]-2-hydroxy-1-(phenylmethyl)propyl]carbamic acid, 1,1-dimethylethyl ester] |  | 64 |  |  | 2300 |
| CC(C)(C)OC(=O)N[C@@H](Cc1ccccc1)[C@H](O)CNC[C@@H](O)[C@H](Cc1ccccc1)NC(=O)[C@@H](NC(=O)[C@H](Cc1ccccc1)NC=O)C(C)(C)C (relative stereo) [Compound 285, [1R*,2S*(2S*,3R*)]-N-[3-[[(1,1-Dimethylethoxy)carbonyl]amino]-2-hydroxy-4-phenylbutyl]amino]-2-hydroxy-1-(phenylmethyl)propyl]-N^2-(N-formyl-L-phenylalanyl)-3-methyl-L-valinamide] |  | 100 |  |  | 650 |
| CC(C)C(NC(=O)OCc1ccccc1)C(=O)NC(Cc1ccccc1)C(O)CNCC(O)C(Cc1ccccc1)NC(=O)C(NC(=O)OCc1ccccc1)C(C)C [Compound 82, [S-[1R*,2R*(2S*,3R*)]]-N-[2-Hydroxy-3-[[2-hydroxy-4-phenyl-3-[[[N-(phenylmethoxy)carbonyl]-L-valyl]amino]butyl]amino]-1-(phenylmethyl)propyl]-N-^2-[(phenylmethoxy)carbonyl]-L-valinamide] |  | 94 |  |  | > 3000 |
| CC(C)[C@H](NC(=O)[C@@H](O)Cc1ccccc1)C(=O)N[C@@H](Cc1ccccc1)[C@H](O)CNC[C@@H](O)[C@H](Cc1ccccc1)NC(=O)OC(C)(C)C [Compound 77, [S-[1R*,2S*(2S*,3R*,N^2 R*]]-N-[3-[[3-[[(1,-Dimethylethoxy)carbonyl]amino]-2-hydroxy-4-phenylbutyl]amino]-2-hydroxy-(phenyyl-methyl)propyl]N^2-(2-hydroxy-1-oxo-3-phenyl-propyl)-L-valinamide] |  | 99 |  |  | 200 |
| CC(C)(C)OC(=O)N[C@@H](Cc1ccccc1)[C@H](O)CNC[C@@H](O)[C@H](Cc1ccccc1)NC(=O)C1(NC(=O)OCc2ccccc2)CCCC1 [Compound 87, [1S-[1R*,2S*(2S*,3R*)]]-[2-Hydroxy3-[[2-hydroxy-3-[[[1-[[(phenylmethoxy)-carbonyl]amino]cycloyentyl]carbonyl]amino]-4-phenylbutyl]-amino]-1-(phenylmethyl)propoyl]carbamic acid, 1,1-dimethylethyl ester] |  | 92 |  |  | > 880 |
| CC(C)[C@H](NC(=O)OCCNc1ccccc1)C(=O)N[C@@H](Cc1ccccc1)[C@H](O)CNC[C@@H](O)[C@H](Cc1ccccc1)NC(=O)OC(C)(C)C (relative stereo) [Compound 203, [1R*,2S*(2S*,3R*)]-N-[3-[[3-[[(1,1-Dimethylethoxy)carbonyl]amino]-2-hydroxy-4-phenylbutyl]amino]-2-hydroxy-1-(phenylmethyl)propyl]-N^2-[[2-(phenylamino)ethoxy]carbonyl]-L-valinamide] |  | 98 |  |  | 200 |

Second part, led by results:

| HIV Protease % Inhibition at 10 μM (HIV protease) [%] | inhibition at 10 µM (HIV protease; [2]) [%] | inhibition at 10 µM (HIV protease; pH 5.5, read-out: HIV Protease % Inhibition at 10 μM) [%] | SMILES | IC50 [1] [nM] | IC50 [1, 3] [nM] |
| --- | --- | --- | --- | --- | --- |
| 99 |  |  | CC(C)(C)OC(=O)N[C@@H](Cc1ccccc1)[C@H](O)CNC[C@@H](O)[C@H](Cc1ccccc1)NC(=O)C(C)(O)C(C)(C)CO (single isomer, unassigned; isomer b) [Compound 357, [1S-[1R*,2S*(2S*,3R*)]]-[3-[[3-[(2,4-Dihydroxy-2,3,3-trimethyl-1-oxobutyl)amino]-2-hydroxy-4-phenylbutyl]amino]-2-hydroxy-1-(phenylmethyl)propyl]carbamic acid, 1,1-dimethylethyl ester, isomer B] | 110 |  |
|  | 57 |  | CC(C)[C@H](NC(=O)OC(C)(C)C)C(=O)N[C@@H](Cc1ccccc1)[C@H](O)CNC[C@@H](O)[C@H](Cc1ccccc1)NC(=O)OC(C)(C)C [Compound 58, [S-[1R*,2S*(2S*,3R*)]-N-[3-[[3-[[(1,1-Dimethylethoxy)carbonyl]amino]-2-hydroxy-4-phenylbutyl]amino]-2-hydroxy-1-(phenylmethyl)-propyl-N^2-[(1,1-dimethylethoxy)-carbonyl]-L-valinamide] |  | 1000 |
|  | 99 |  | CC(C)(C)OC(=O)N[C@@H](Cc1ccccc1)[C@H](O)CNC[C@@H](O)[C@H](Cc1ccc(O)cc1)NC(=O)OC(C)(C)C [Compound 21, [1S-[1R*,2S*(2S*,3R*)]]-3-[[3-[[(1,1-Dimethylethoxy)carbonyl]amino]-2-hydroxy-4-(4-hydroxyphenyl)butyl]amino]-2-hydroxy-1-(phenylmethyl)propyl]carbamic acid, 1,1-dimethylethyl ester] |  | 90 |
|  |  | 99 | CN1CCN(CCOc2ccc(C[C@H](NC(=O)OC(C)(C)C)[C@H](O)CNC[C@@H](O)[C@H](Cc3ccccc3)NC(=O)OC(C)(C)C)cc2)C1=O [Compound 363, [1S-[1R*,2S*(2S*,3R*)]]-[3-[[3-[[(1,1-Dimethylethoxy)carbonyl]amino]-2-hydroxy-4-[4-[2-(3-methyl-2-oxo-1-imidazolidinyl)-ethoxy]phenyl]butyl]amino]-2-hydroxy-1-(phenylmethyl)propyl]carbamic acid, 1,1-dimethylethyl ester] |  | 40 |
|  | 98 |  | CC(C)(C)OC(=O)N[C@@H](Cc1ccccc1)[C@H](O)CNC[C@@H](O)[C@H](Cc1ccccc1)NC(=O)C(=O)C(C)(C)C [Compound 213, [1S-[1R*,2S*(2S*,3R*)]]-[3-[[3-[(3,3-Dimethyl-1,2-dioxobutyl)amino]-2-hydroxy-4-phenylbutyl]amino]-2-hydroxy-1-(phenylmethyl)propyl]carbamic acid, 1,1-dimethylethyl ester] |  | 170 |
|  | 99 |  | CC(C)(C)OC(=O)N[C@@H](Cc1ccccc1)[C@H](O)CNC[C@@H](O)[C@H](Cc1ccccc1)NC(=O)[C@@H](NC(=O)CNC=O)C(C)(C)C (relative stereo) [Compound 286, [1R*,2S*(2S*,3R*)]-N-[3-[[(1,1-Dimethylethoxy)carbonyl]amino]-2-hydroxy-4-phenylbutyl]amino]-2-hydroxy-1-(phenylmethyl)propyl]-N^2-(N-formylglycyl)-3-methyl-L-valinamide] |  | 5000 |
|  | 99 |  | CC(C)(C)OC(=O)N[C@@H](Cc1ccccc1)[C@H](O)CNC[C@@H](O)[C@H](Cc1ccccc1OCc1ccccc1)NC(=O)OC(C)(C)C [Compound 348, [1S-[1R*,2S*(2S*,3R*)]]-[3-[[(3-[[(1,1-Dimethylethoxy)carbonyl]amino]-2-hydroxy-4-[2-(phenylmethoxy)phenyl]butyl]amino]-2-hydroxy-1-(phenylmethyl)propyl]carbamic acid, 1,1-dimethylethyl ester] |  |  |

From patent US5760036A, “Aminediol protease inhibitors” (E. R. Squibb & Sons, Inc., priority 1995, dated 1998)
